Test results from patent US20170050980A1, “OXADIAZINE COMPOUNDS AND METHODS OF USE THEREOF” (FORUM Pharmaceuticals Inc., priority 2015, published 2017).

The compounds below were run on Aβ42 (assay: In vitro cell screening assay; quantification of Aβ (1-42) peptide by sandwich ELISA). Details: Human neuroglioma H4 cells stably expressing human wild type APP751; compounds 0.003-10 μM, incubated overnight (16-18 h); Aβ42 in supernatant by sandwich ELISA; normalized to DMSO and DAPT; read-out: Aβ42 H4 Prot Fre IC50.
Type: cell-based
Protocol: Human neuroglioma H4 cells were transfected with a pcDNA3.1 plasmid expressing human wild type APP751 cDNA and a stable cell line was generated using G418 selection. Cells were plated at 15,000 cells/well in Costar 96-well plates and placed at 37° C. and 5% CO2. Six hours after plating, cells were washed three times with Pro293™ chemically defined medium, followed by addition of compounds (0.003-10 μM, final DMSO concentration of 0.33%). Plates were incubated overnight (16-18 h) and supernatant was removed for quantification of Aβ peptides by sandwich ELISA. Cytotoxicity was evaluated using Cell-Titer 96W AQueous One Solution Cell Proliferation Assay according to the manufacturer's protocol.
Aβ peptide levels were quantified by sandwich ELISA. 96-well plates were coated with C-terminal specific Aβ antibodies recognizing either Aβ37, Aβ38, Aβ40, Aβ42, Aβ43 or a N-terminal specific Aβ antibody to detect Aβ 1-x. Plates were then blocked overnight at 4° C. with 1% bovine serum albumin (BSA) in PBS-T. Plates were washed and 100 μl of cultured cell supernatant or synthetic Aβ peptide standards and a detection antibody (4G8-HRP) were applied to the blocked plate and incubated overnight at 4° C. The next day, wells were washed before the addition of detection substrate (TMB peroxidase). Plates were then read for absorbance at 450 nm on a Molecular Devices SpectraMax M5e Microplate Reader.
Compound-treated samples were normalized to samples treated with DMSO alone (no inhibition) and to samples treated with DAPT. IC50 values were calculated from values reported as percent of DMSO controls using nonlinear regression, based on a sigmoidal dose—response (variable slope) model. […] used for calculation.

Structure (SMILES)	IC50 [nM]
COc1nc(C2=NOC(C)C(c3cn(C)c4ncc(C(F)(F)F)cc34)N2)ccc1-n1cnc(C)c1 (single isomer, unassigned; (+)) [44B or 45B, (+)-3-(6-methoxy-5-(4-methyl-1H-imidazol-1-yl)pyridin-2-yl)-6-methyl-5-(1-methyl-5-(trifluoromethyl)-1H-pyrrolo[2,3-b]pyridin-3-yl)-5,6-dihydro-4H-1,2,4-oxadiazine]	8.2
COc1nc(C2=NOC(C)C(c3cn(C)c4ccc(F)c(F)c34)N2)ccc1-n1cnc(C)c1 (single isomer, unassigned; (+)) [Example 52C, (+)-5-(4,5-difluoro-1-methyl-1H-indol-3-yl)-3-(6-methoxy-5-(4-methyl-1H-imidazol-1-yl)pyridin-2-yl)-6-methyl-5,6-dihydro-4H-1,2,4-oxadiazine]	5.8
COc1nc(C2=NOC(C)C(c3cn(C)c4cc(F)c(Cl)cc34)N2)ccc1-n1cnc(C)c1 (single isomer, unassigned; (+)) [Example 21D, (+)-5-(5-chloro-6-fluoro-1-methyl-1H-indol-3-yl)-3-(6-methoxy-5-(4-methyl-1H-imidazol-1-yl)pyridin-2-yl)-6-methyl-5,6-dihydro-4H-1,2,4-oxadiazine]	2
COc1cc(C2=NOC(C)C(c3ccc(Cl)cc3)N2)ccc1-n1cnc(C)c1 (single isomer, unassigned; (+)) [Example 43B, (+)-5-(4-chlorophenyl)-3-(3-methoxy-4-(4-methyl-1H-imidazol-1-yl)phenyl)-6-methyl-5,6-dihydro-4H-1,2,4-oxadiazine]	80.5
COc1nc(C2=NOC3(CC3)C(c3ccc(Cl)cc3)N2)ccc1-n1cnc(C)c1 (single isomer, unassigned; (-)) [Example 25A, (−)-8-(4-chlorophenyl)-6-[6-methoxy-5-(4-methyl-1H-imidazol-1-yl)pyridin-2-yl]-4-oxa-5,7-diazaspiro[2.5]oct-5-ene]	2600
COc1nc(C2=NOC(C)C(c3cn(C)c4ncc(C(F)(F)F)cc34)N2)ccc1-n1cnc(C)c1 (single isomer, unassigned; (-)) [44A or 45A, (−)-3-(6-methoxy-5-(4-methyl-1H-imidazol-1-yl)pyridin-2-yl)-6-methyl-5-(1-methyl-5-(trifluoromethyl)-1H-pyrrolo[2,3-b]pyridin-3-yl)-5,6-dihydro-4H-1,2,4-oxadiazine]	173
COc1nc(C2=NOC(C)C(c3cc4ccc(Cl)cc4o3)N2)ccc1-n1cnc(C)c1 (single isomer, unassigned) [Example 46B, 5-(6-chlorobenzofuran-2-yl)-3-(6-methoxy-5-(4-methyl-1H-imidazol-1-yl)pyridin-2-yl)-6-methyl-5,6-dihydro-4H-1,2,4-oxadiazine]	5.1
COc1nc(C2=NOC(C)C(c3ccc(Cl)cc3)N2)ccc1-n1cnc(C)c1 (stereo not drawn) [Example 24A, (−)-trans-5-(4-chlorophenyl)-3-[6-methoxy-5-(4-methyl-1H-imidazol-1-yl)pyridin-2-yl]-6-methyl-5,6-dihydro-4H-1,2,4-oxadiazine]	1200
COc1nc(C2=NO[C@H](C)[C@H](c3ccc(Cl)cc3)N2)ccc1-n1cnc(C)c1 [Example 18B, (+)-(5S,6R)-5-(4-chlorophenyl)-3-[6-methoxy-5-(4-methyl-1H-imidazol-1-yl)pyridin-2-yl]-6-methyl-5,6-dihydro-4H-1,2,4-oxadiazine]	19
COc1nc(C2=NOC(C)C(c3ccc(Cl)c(C(F)F)c3)N2)ccc1-n1cnc(C)c1 (single isomer, unassigned; (+)) [Example 55A, (+)-5-(4-chloro-3-(difluoromethyl)phenyl)-3-(6-methoxy-5-(4-methyl-1H-imidazol-1-yl)pyridin-2-yl)-6-methyl-5,6-dihydro-4H-1,2,4-oxadiazine]	11.6
COc1nc(C2=NOC(C)C(c3c4n(c5ccc(Cl)cc35)CCOC4)N2)ccc1-n1cnc(C)c1 (single isomer, unassigned; (-)) [Example 50B, (−)-8-chloro-10-(3-(6-methoxy-5-(4-methyl-1H-imidazol-1-yl)pyridin-2-yl)-6-methyl-5,6-dihydro-4H-1,2,4-oxadiazin-5-yl)-3,4-dihydro-1H-[1,4] oxazino [4,3-a] indole]	27
COc1nc(C2=NOC(C3CC3)C(c3cn(C)c4nccc(F)c34)N2)ccc1-n1cnc(C)c1 (single isomer, unassigned; (+)) [Example 63A, (+)-6-cyclopropyl-5-(4-fluoro-1-methyl-1H-pyrrolo [2,3-b]pyridin-3-yl)-3-(6-methoxy-5-(4-methyl-1H-imidazol-1-yl)pyridin-2-yl)-5,6-dihydro-4H-1,2,4-oxadiazine]	1060
COc1nc(C2=NOC(C)C(c3cn(C)c4cc(F)c(F)cc34)N2)ccc1-n1cnc(C)c1 (single isomer, unassigned; (-)) [Example 39B, (−)-5-(5,6-difluoro-1-methyl-1H-indol-3-yl)-3-(6-methoxy-5-(4-methyl-1H-imidazol-1-yl)pyridin-2-yl)-6-methyl-5,6-dihydro-4H-1,2,4-oxadiazine]	70.4
COc1nc(C2=NOC(C3CC3)C(c3ccc(Cl)cc3)N2)ccc1-n1cnc(C)c1 (stereo not drawn) [Example 20B, (+)-cis-5-(4-chlorophenyl)-6-cyclopropyl-3-[6-methoxy-5-(4-methyl-1H-imidazol-1-yl)pyridin-2-yl]-5,6-dihydro-4H-1,2,4-oxadiazine]	9
COc1nc(C2=NOC(C)C(c3cn(C)c4ncc(C5CC5)cc34)N2)ccc1-n1cnc(C)c1 (single isomer, unassigned; (+)) [Example 56A, (+)-5-(5-cyclopropyl-1-methyl-1H-pyrrolo [2,3-b]pyridin-3-yl)-3-(6-methoxy-5-(4-methyl-1H-imidazol-1-yl)pyridin-2-yl)-6-methyl-5,6-dihydro-4H-1,2,4-oxadiazine]	746
COc1nc(C2=NOCC(c3cn(C)c4ccc(C5CCOCC5)cc34)N2)ccc1-n1cnc(C)c1 (single isomer, unassigned; (+)) [Example 29B, (+)-3-(6-methoxy-5-(4-methyl-1H-imidazol-1-yl)pyridin-2-yl)-5-(1-methyl-5-(tetrahydro-2H-pyran-4-yl)-1H-indol-3-yl)-5,6-dihydro-4H-1,2,4-oxadiazine]	20.5
COc1nc(C2=NOC(C)C(c3cn(C)c4ncc(Cl)cc34)N2)ccc1-n1cnc(C)c1 (single isomer, unassigned; (-)) [Example 54C, (−)-5-(5-chloro-1-methyl-1H-pyrrolo [2,3-b]pyridin-3-yl)-3-(6-methoxy-5-(4-methyl-1H-imidazol-1-yl)pyridin-2-yl)-6-methyl-5,6-dihydro-4H-1,2,4-oxadiazine]	464
COc1nc(C2=NOC(C)C(c3cccc(Cl)c3)N2)ccc1-n1cnc(C)c1 (single isomer, unassigned) [Example 41B, 5-(3-chlorophenyl)-3-(6-methoxy-5-(4-methyl-1H-imidazol-1-yl)pyridin-2-yl)-6-methyl-5,6-dihydro-4H-1,2,4-oxadiazine]	14.2
COc1nc(C2=NOCC(c3c4n(c5ccccc35)CCOC4)N2)ccc1-n1cnc(C)c1 (single isomer, unassigned; (+)) [Example 30B, (+)-10-(3-(6-methoxy-5-(4-methyl-1H-imidazol-1-yl)pyridin-2-yl)-5,6-dihydro-4H-1,2,4-oxadiazin-5-yl)-3,4-dihydro-1H-[1,4]oxazino[4,3-a]indole]	16.9
COc1nc(C2=NOC(C)C(c3c4n(c5ccc(Cl)cc35)CCOC4)N2)ccc1-n1cnc(C)c1 (single isomer, unassigned; (+)) [Example 50D, (+)-8-chloro-10-(3-(6-methoxy-5-(4-methyl-1H-imidazol-1-yl)pyridin-2-yl)-6-methyl-5,6-dihydro-4H-1,2,4-oxadiazin-5-yl)-3,4-dihydro-1H-[1,4] oxazino [4,3-a] indole]	6.3
COc1nc(C2=NOC(C)C(c3cn(C)c4ncc(Cl)cc34)N2)ccc1-n1cnc(C)c1 (single isomer, unassigned; (-)) [Example 54A, (−)-5-(5-chloro-1-methyl-1H-pyrrolo [2,3-b]pyridin-3-yl)-3-(6-methoxy-5-(4-methyl-1H-imidazol-1-yl)pyridin-2-yl)-6-methyl-5,6-dihydro-4H-1,2,4-oxadiazine]	190
COc1nc(C2=NOC(C)C(c3cn(C)c4ncc(Cl)cc34)N2)ccc1-n1cnc(C)c1 (single isomer, unassigned; (+)) [Example 54B, (+)-5-(5-chloro-1-methyl-1H-pyrrolo [2,3-b]pyridin-3-yl)-3-(6-methoxy-5-(4-methyl-1H-imidazol-1-yl)pyridin-2-yl)-6-methyl-5,6-dihydro-4H-1,2,4-oxadiazine]	6.3
COc1nc(C2=NOC(C3CC3)C(c3cc4ccccc4o3)N2)ccc1-n1cnc(C)c1 (single isomer, unassigned; (-)) [Example 61B, (−)-5-(benzofuran-2-yl)-6-cyclopropyl-3-(6-methoxy-5-(4-methyl-1H-imidazol-1-yl)pyridin-2-yl)-5,6-dihydro-4H-1,2,4-oxadiazine]	598
